{"source": "patent US11014917B2", "about": "“5-fluoro-c-(aryl or heterocyclyl)-glycoside derivatives useful as dual SGLT1 / SGLT2 modulators” (Janssen Pharmaceutica NV, priority 2017, dated 2021)", "key": {"[1]": {"target": "T1, human SGLT1 (Homo sapiens, UniProt P13866)", "T1 construct": "expressed in transfected cells", "T1 sequence (P13866 1-664)": "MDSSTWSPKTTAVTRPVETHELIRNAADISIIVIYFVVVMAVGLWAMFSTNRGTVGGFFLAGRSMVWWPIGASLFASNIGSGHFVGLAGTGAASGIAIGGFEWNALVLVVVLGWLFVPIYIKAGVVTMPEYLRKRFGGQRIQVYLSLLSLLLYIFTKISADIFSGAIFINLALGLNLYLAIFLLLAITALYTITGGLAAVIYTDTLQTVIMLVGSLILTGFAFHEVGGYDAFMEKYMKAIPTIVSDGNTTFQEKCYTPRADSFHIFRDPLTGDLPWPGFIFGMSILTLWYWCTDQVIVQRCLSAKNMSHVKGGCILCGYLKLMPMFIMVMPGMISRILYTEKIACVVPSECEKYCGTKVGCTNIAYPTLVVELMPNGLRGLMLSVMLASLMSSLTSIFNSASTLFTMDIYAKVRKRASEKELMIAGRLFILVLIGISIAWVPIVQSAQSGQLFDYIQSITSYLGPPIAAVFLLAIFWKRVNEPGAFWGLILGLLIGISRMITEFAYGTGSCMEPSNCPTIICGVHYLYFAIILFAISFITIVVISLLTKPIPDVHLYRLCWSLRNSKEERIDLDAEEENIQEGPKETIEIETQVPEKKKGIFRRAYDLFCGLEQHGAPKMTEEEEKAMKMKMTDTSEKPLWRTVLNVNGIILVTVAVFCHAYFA", "experiment": "SGLT1 assay: Na-dependent 14C-AMG uptake in CHO-K1 cells stably expressing human SGLT1", "type": "cell-based", "conditions": "for IC50: average if tested more than once", "procedure,_shortened": "(§1)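 Stable CHO-K1 lines were pretreated 24 h with 10 mM Na-butyrate, then compound (0.001–10 μM) for 10 min in Na+ buffer (137 mM NaCl, pH 7.4). Uptake of 14C-AMG (500 μM final, 0.07 μCi/well) over 2 h at 37° C measured by scintillation; %-inhibition or IC50.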"}, "[2]": {"target": "T2, human SGLT2 (Homo sapiens, UniProt P31639)", "T2 construct": "expressed in transfected cells", "T2 sequence (P31639 1-672)": "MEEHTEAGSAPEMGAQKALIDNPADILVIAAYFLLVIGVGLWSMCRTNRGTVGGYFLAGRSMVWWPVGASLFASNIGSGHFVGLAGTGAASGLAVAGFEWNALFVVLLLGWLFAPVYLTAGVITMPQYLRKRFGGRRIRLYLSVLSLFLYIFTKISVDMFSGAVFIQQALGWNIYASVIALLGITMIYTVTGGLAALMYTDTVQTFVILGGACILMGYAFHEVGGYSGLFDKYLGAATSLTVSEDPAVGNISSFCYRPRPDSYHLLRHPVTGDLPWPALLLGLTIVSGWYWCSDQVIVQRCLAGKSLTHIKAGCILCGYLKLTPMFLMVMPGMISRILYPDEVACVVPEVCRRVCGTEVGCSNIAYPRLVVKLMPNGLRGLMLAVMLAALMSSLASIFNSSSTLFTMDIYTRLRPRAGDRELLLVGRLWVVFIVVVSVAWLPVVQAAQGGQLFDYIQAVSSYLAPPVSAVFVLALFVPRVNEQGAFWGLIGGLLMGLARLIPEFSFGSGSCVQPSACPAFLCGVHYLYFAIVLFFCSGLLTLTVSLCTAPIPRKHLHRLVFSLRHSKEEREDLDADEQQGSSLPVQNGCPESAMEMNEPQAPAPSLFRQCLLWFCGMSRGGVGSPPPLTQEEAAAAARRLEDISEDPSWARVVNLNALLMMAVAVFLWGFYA", "experiment": "SGLT2 assay: Na-dependent 14C-AMG uptake in CHO-K1 cells stably expressing human SGLT2", "type": "cell-based", "conditions": "for SGLT2 %-inhibition: @ 0.3 μM; for IC50: average if tested more than once", "procedure,_shortened": "as §1"}}, "data": [{"smiles": "COC(=O)N1CCc2sc(Cc3cc([C@@H]4O[C@H](CO)[C@@H](F)[C@H](O)[C@H]4O)c(OC)cc3OC)cc2C1", "note": "[Compound 83]", "values": [{"measurement": "SGLT1 %-inhibition", "setting": "[1]; @ 0.3 μM", "value": 17.4, "unit": "% @ 0.3 μM"}, {"measurement": "SGLT2 %-inhibition", "setting": "[2]", "value": 72.3, "unit": "% @ 0.3 μM"}]}, {"smiles": "Cc1cc(CO)c([C@@H]2O[C@H](CO)[C@@H](F)[C@H](O)[C@H]2O)cc1Cc1cc2ccccc2s1", "note": "[Compound 42]", "values": [{"measurement": "IC50", "setting": "[1]", "value": 98, "unit": "nM"}, {"measurement": "IC50", "setting": "[2]", "value": 10, "unit": "nM"}]}, {"smiles": "Cc1cc(O)c([C@@H]2O[C@H](CC#N)[C@@H](F)[C@H](O)[C@H]2O)cc1Cc1cc2ccccc2s1", "note": "[Compound 23]", "values": [{"measurement": "inhibition at 0.3 µM", "setting": "[1]; @ 0.3 μM", "value": 65.2, "unit": "%"}, {"measurement": "IC50", "setting": "[2]", "value": 69, "unit": "nM"}]}, {"smiles": "OC[C@H]1O[C@@H](c2cc(Cc3cc4ccccc4s3)c3c(c2O)CCO3)[C@H](O)[C@@H](O)[C@@H]1F", "note": "[Compound 59]", "values": [{"measurement": "IC50", "setting": "[1]", "value": 31, "unit": "nM"}, {"measurement": "IC50", "setting": "[2]", "value": 9, "unit": "nM"}]}, {"smiles": "Cc1cc(O)c([C@@H]2O[C@H](CO)[C@@H](F)[C@H](O)[C@H]2O)cc1Cc1cc2c(s1)CCN(C#N)C2", "note": "[Compound 103, 2-(5-((2S,3R,4R,5S,6R)-5-fluoro-3,4-dihydroxy-6-(hydroxymethyl)-tetrahydro-2H-pyran-2-yl)-4-hydroxy-2-methylbenzyl)-6,7-dihydrothieno[3,2-c]pyridine-5(4H)-carbonitrile]", "values": [{"measurement": "IC50", "setting": "[1]", "value": 86, "unit": "nM"}, {"measurement": "IC50", "setting": "[2]", "value": 3, "unit": "nM"}]}, {"smiles": "[2H]C([2H])(c1ccc2c(c1)OCCO2)c1cc([C@@H]2O[C@H](CO)[C@@H](F)[C@H](O)[C@H]2O)c(F)cc1OC", "note": "[Compound 165]", "values": [{"measurement": "IC50", "setting": "[1]", "value": 56, "unit": "nM"}, {"measurement": "IC50", "setting": "[2]", "value": 16, "unit": "nM"}]}, {"smiles": "Cc1cc(O)c([C@@H]2O[C@H](CN)[C@@H](F)[C@H](O)[C@H]2O)cc1Cc1cc2ccccc2s1", "note": "[Compound 24]", "values": [{"measurement": "IC50", "setting": "[1]", "value": 977, "unit": "nM"}, {"measurement": "IC50", "setting": "[2]", "value": 332, "unit": "nM"}]}, {"smiles": "CCc1cc(O)c([C@@H]2O[C@H](CO)[C@@H](F)[C@H](O)[C@H]2O)cc1Cc1cc2ccccc2s1", "note": "[Compound 31]", "values": [{"measurement": "IC50", "setting": "[1]", "value": 9, "unit": "nM"}, {"measurement": "IC50", "setting": "[2]", "value": 19, "unit": "nM"}]}, {"smiles": "OC[C@H]1O[C@@H](c2cc(Cc3ccc4c(c3)SCCO4)c(Cl)c3c2OCC3)[C@H](O)[C@@H](O)[C@@H]1F", "note": "[Compound 127]", "values": [{"measurement": "SGLT1 %-inhibition", "setting": "[1]; @ 0.3 μM", "value": 63.2, "unit": "% @ 0.3 μM"}, {"measurement": "SGLT2 %-inhibition", "setting": "[2]", "value": 78.4, "unit": "% @ 0.3 μM"}]}, {"smiles": "[2H]C([2H])([2H])Oc1c([C@@H]2O[C@H](CO)[C@@H](F)[C@H](O)[C@H]2O)cc(Cc2ccc3c(c2)OCCO3)c2c1CCO2", "note": "[Compound 160, (2S,3R,4R,5S,6R)-2-[7-(2,3-dihydro-1,4-benzodioxin-6-ylmethyl)-4-(trideuteriomethoxy)-2,3-dihydrobenzofuran-5-yl]-5-fluoro-6-(hydroxymethyl)tetrahydropyran-3,4-diol]", "values": [{"measurement": "IC50", "setting": "[1]", "value": 71, "unit": "nM"}, {"measurement": "IC50", "setting": "[2]", "value": 8, "unit": "nM"}]}, {"smiles": "OC[C@H]1O[C@@H](c2cc(Cc3ccc4c(c3)OCCO4)c3c(c2O)CCO3)[C@H](O)[C@@H](O)[C@@H]1F", "note": "[Compound 61, (2S,3R,4R,5S,6R)-2-(7-((2,3-dihydrobenzo[b][1,4]dioxin-6-yl)methyl)-4-hydroxy-2,3-dihydrobenzofuran-5-yl)-5-fluoro-6-(hydroxymethyl)tetrahydro-2H-pyran-3,4-diol]", "values": [{"measurement": "IC50", "setting": "[1]", "value": 14, "unit": "nM"}, {"measurement": "IC50", "setting": "[2]", "value": 3, "unit": "nM"}]}, {"smiles": "Cc1cc(O)c([C@@H]2O[C@H](CO)[C@@H](F)[C@H](O)[C@H]2O)cc1Cc1cc2c(s1)CCN(C(=O)C1CCCC1)C2", "note": "[Compound 86, Cyclopentyl(2-(5-((2S,3R,4R,5S,6R)-5-fluoro-3,4-dihydroxy-6-(hydroxymethyl)-tetrahydro-2H-pyran-2-yl)-4-hydroxy-2-methylbenzyl)-6,7-dihydrothieno[3,2-c]pyridin-5(4H)-yl)methanone]", "values": [{"measurement": "IC50", "setting": "[1]", "value": 290, "unit": "nM"}, {"measurement": "IC50", "setting": "[2]", "value": 38, "unit": "nM"}]}, {"smiles": "CCc1cc(OC)c([C@@H]2O[C@H](CO)[C@@H](F)[C@H](O)[C@H]2O)cc1Cc1cc2c(s1)CCN(C#N)C2", "note": "[Compound 115]", "values": [{"measurement": "SGLT1 %-inhibition", "setting": "[1]; @ 0.3 μM", "value": 35.6, "unit": "% @ 0.3 μM"}, {"measurement": "SGLT2 %-inhibition", "setting": "[2]", "value": 79.3, "unit": "% @ 0.3 μM"}]}, {"smiles": "[2H]C([2H])([2H])Oc1cc(CC)c(Cc2ccc3c(c2)OCCO3)cc1[C@@H]1O[C@H](CO)[C@@H](F)[C@H](O)[C@H]1O", "note": "[Compound 182]", "values": [{"measurement": "IC50", "setting": "[1]", "value": 138, "unit": "nM"}, {"measurement": "IC50", "setting": "[2]", "value": 11, "unit": "nM"}]}, {"smiles": "CCc1ccc([C@@H]2O[C@H](CO)[C@@H](F)[C@H](O)[C@H]2O)cc1Cc1ccc2c(c1)OC(F)(F)O2", "note": "[Compound 159]", "values": [{"measurement": "SGLT1 %-inhibition", "setting": "[1]; @ 0.3 μM", "value": 6.0, "unit": "% @ 0.3 μM"}, {"measurement": "SGLT2 %-inhibition", "setting": "[2]", "value": 0.0, "unit": "% @ 0.3 μM"}]}]}
